In brackets after ≈: the same amount, converted by molar mass.
Columns and labels:
[1] = test system: C. albicans CAF2-1 strain; experiment: Anti-Candida activity (MIC measurement); assay type: cell-based; conditions: CAF21STRAIN, minimum inhibitory concentration (MIC) by visual inspection, RPMI 1640, 42 to 48 hours at 35° C.
Method: (§1) 1. Anti-Candida Activity and Anti-Aspergillus Activity
(§2) (1) Preparation of Fungal Sample
(§3) For the C. albicans CAF2-1 strain, a fungal suspension from a standing culture for 48 hours at 30° C. in a Sabouraud dextrose liquid culture medium (SDB) was diluted with RPMI 1640 medium to adjust a fungal suspension of 1.2×10^3 cells/mL. For the A. fumigatus Tsukuba strain, −80° C. stored strain was diluted with RPMI 1640 medium to adjust to a fungal suspension of 4.5×10^3 cells/mL.
(§4) (2) Preparation of an Agent Dilution Plate
(§5) Using a U-bottomed 96-well plate, 8 samples/plate (A to H) of sample dilution solutions were prepared. On the 2nd to 12th rows were dispensed 10 μL of dimethyl sulfoxide solution. Weighed sample was dissolved in dimethyl sulfoxide to prepare a 2.5 mg/mL solution, 20 μL of this solution was added to the first row of the prepared plate, and 12 steps of two-fold step dilutions (10 μL of solution+10 μL of dimethyl sulfoxide solution) were performed on the plate. This sample dilution solution was dispensed in an amount of 1 μL into a flat-bottomed 96-well plate for MIC measurement to prepare a sample dilution plate.
(§6) (3) Inoculation of Fungal Suspension and Culture
(§7) The fungal suspension prepared in (1) was used in an amount of 99 μL/well to inoculate the flat-bottomed 96-well plate containing 1 μL/well of the test compound dilution prepared in (2), and standing culture was performed aerobically for 42 to 48 hours at 35° C.
(§8) The following representative compounds prepared in the examples were measured for anti-Candida activity and anti-Aspergillus activity by measurement method in (1).

[2] = test system: A. fumigatus Tsukuba strain; experiment: Anti-Aspergillus activity (MIC measurement); assay type: cell-based; conditions: minimum inhibitory concentration (MIC) by visual inspection, RPMI 1640, 42 to 48 hours at 35° C.
Method: as §1, §2, §3, §4, §5, §6, §7, §8

[3] = test system: C. albicans E81022 strain; experiment: Experimental systemic candidal infection model in mice; assay type: in vivo; conditions: peroral, 3 times every 4 hours, female ICR mice infected iv with C. albicans E81022, observed until 14 days after infection
Method: 2. Experimental Systemic Candidal Infection Model in Mice (1) Preparation of Fungal Inoculant
A standing culture of C. albicans E81022 strain was carried out for 48 hours at 30° C. in Sabouraud dextrose agar medium (SDA), and the recovered fungal cells were suspended in sterilized physiological saline. By counting the fungal number on cytometry plate, the suspension was diluted to 2×10^7 cells/mL with sterilized physiological saline to serve fungal inoculum.
The fungal inoculum was used in amounts of 0.2 mL to inoculate 4.5 to 5.5 week-old female ICR mice in the tail vein (4×10^6 cells/mouse).
From 0.5 to 1 hour after fungal inoculation, 0.2 mL of agent solution (dissolved or suspended in sterilized physiological saline containing 6.5% dimethyl sulfoxide and 3.5% Tween 80) was administered into the stomach using a peroral probe, 3 times every 4 hours. The agent concentration was 2.5 or 10 mg/kg, and the number of animal in one group was five animals.
(4) Determination of Effects
The protective effect was determined by observing life/death until 14 days after infection and calculating the mean survival days.

SMILES: Nc1ncccc1-c1nnn(Cc2ccc(OCc3ccccc3)cc2)n1 [Example 5, 3-(2-(4-Benzyloxy-benzyl)-2H-tetrazol-5-yl)-pyridin-2-ylamine]
- MIC [1]: 0.78 µg/mL (≈ 2.18 µM)
- MIC [2]: 1.56 µg/mL (≈ 4.35 µM)
- Mean Survival Day (MSD) ([3]; Dose 10 mg/kg): 11.8 days

SMILES: Nc1ncccc1-c1nnc(Cc2ccc(OCc3ccccc3)cc2)o1 [Example 9]
- MIC [1]: 0.39 µg/mL (≈ 1.09 µM)
- MIC [2]: 0.78 µg/mL (≈ 2.18 µM)
- Mean Survival Day (MSD) ([3]; Dose 2.5 mg/kg): 7.8 days
- Mean Survival Day (MSD) ([3]; Dose 10 mg/kg): 10.8 days

SMILES: Nc1ncccc1-c1noc(Cc2ccc(OCc3ccccn3)cc2)n1 [Example 23]
- MIC [1]: 1.56 µg/mL (≈ 4.34 µM)
- MIC [2]: 6.25 µg/mL (≈ 17.4 µM)

SMILES: Nc1ncccc1-c1nnc(Cc2ccc(OCc3ccccn3)cc2)o1 [Example 24]
- MIC [1]: 1.56 µg/mL (≈ 4.34 µM)
- MIC [2]: 6.25 µg/mL (≈ 17.4 µM)

SMILES: Nc1ncccc1-c1cn(Cc2ccc(COc3ccccn3)cc2)nn1 [Example 26, 3-(1-(4-(Pyridin-2-yloxymethyl)-benzyl)-1H-[1,2,3]triazol-4-yl)-pyridin-2-ylamine]
- MIC [1]: 0.05 µg/mL (≈ 0.14 µM)
- MIC [2]: 0.39 µg/mL (≈ 1.09 µM)

SMILES: Nc1ccc(-c2nnn(Cc3ccc(OCc4ccccn4)cc3)n2)c(N)n1 [Example 27, 3-(2-(4-(Pyridin-2-ylmethoxy)-benzyl)-2H-tetrazol-5-yl)-pyridin-2,6-diamine]
- MIC [1]: 0.2 µg/mL (≈ 0.534 µM)
- MIC [2]: 0.78 µg/mL (≈ 2.08 µM)
- Mean Survival Day (MSD) ([3]; Dose 2.5 mg/kg): 5.6 days
- Mean Survival Day (MSD) ([3]; Dose 10 mg/kg): 12 days

SMILES: Nc1ncccc1-c1cn(Cc2cccc(Oc3ccccc3)c2)nn1 [Example 28, 3-(1-(3-Phenoxy-benzyl)-1H-[1,2,3]triazol-4-yl)-pyridin-2-ylamine]
- MIC [1]: 0.1 µg/mL (≈ 0.291 µM)
- MIC [2]: 1.56 µg/mL (≈ 4.54 µM)

SMILES: Nc1ccc(-c2cn(Cc3cccc(Oc4ccccc4)c3)nn2)cn1 [Example 29, 5-(1-(3-Phenoxy-benzyl)-1H-[1,2,3]triazol-4-yl)-pyridin-2-ylamine]
- MIC [1]: 0.39 µg/mL (≈ 1.14 µM)
- MIC [2]: 1.56 µg/mL (≈ 4.54 µM)

SMILES: Nc1ncccc1-c1nnn(Cc2cccc(Oc3ccccc3)c2)n1 [Example 31, 3-(2-(3-Phenoxy-benzyl)-2H-tetrazol-5-yl)-pyridin-2-ylamine]
- MIC [1]: 0.39 µg/mL (≈ 1.13 µM)
- MIC [2]: 0.78 µg/mL (≈ 2.26 µM)

SMILES: Nc1ncccc1-c1cn(Cc2ccc(Oc3ccccc3)cc2)nn1 [Example 32, 3-(1-(4-Phenoxy-benzyl)-1H-[1,2,3]triazol-4-yl)-pyridin-2-ylamine]
- MIC [1]: 0.1 µg/mL (≈ 0.291 µM)
- MIC [2]: 0.39 µg/mL (≈ 1.14 µM)

SMILES: Nc1ncccc1-c1nnn(Cc2ccc(Oc3ccccc3)cc2)n1 [Example 35, 3-(2-(4-Phenoxy-benzyl)-2H-tetrazol-5-yl)-pyridin-2-ylamine]
- MIC [1]: 1.56 µg/mL (≈ 4.53 µM)
- MIC [2]: 0.78 µg/mL (≈ 2.26 µM)

SMILES: Nc1ncccc1-c1cn(Cc2ccc(COc3ccccc3)cn2)nn1 [Example 37, 3-(1-(5-Phenoxymethyl-pyridin-2-ylmethyl)-1H-[1,2,3]triazol-4-yl)-pyridin-2-ylamine]
- MIC [1]: 0.2 µg/mL (≈ 0.558 µM)
- MIC [2]: 1.56 µg/mL (≈ 4.35 µM)

SMILES: Nc1ccc(-c2nnn(Cc3ccc(OCc4ccccc4)cn3)n2)c(N)n1 [Example 40, 3-(2-(5-Benzyloxy-pyridin-2-ylmethyl)-2H-tetrazol-5-yl)-pyridin-2,6-diamine]
- MIC [1]: 1.56 µg/mL (≈ 4.17 µM)
- MIC [2]: > 25 µg/mL

SMILES: CCCCOCc1ccc(Cn2cc(-c3ccc(COC)nc3N)nn2)cc1 [Example 41, 3-[1-(4-Butoxymethyl-benzyl)-1H-[1,2,3]triazol-4-yl]-6-methoxymethyl-pyridin-2-ylamine]
- MIC [1]: 0.39 µg/mL (≈ 1.02 µM)
- MIC [2]: 1.56 µg/mL (≈ 4.09 µM)
- Mean Survival Day (MSD) ([3]; Dose 2.5 mg/kg): 6.2 days
- Mean Survival Day (MSD) ([3]; Dose 10 mg/kg): 11.2 days

SMILES: CCCCOCc1ccc(Cn2cc(-c3ccc(N)nc3N)nn2)cc1 [Example 42, 3-(1-(4-Butoxymethyl-benzyl)-1H-[1,2,3]triazol-4-yl)-pyridin-2,6-diamine]
- MIC [1]: 0.2 µg/mL (≈ 0.567 µM)
- MIC [2]: 0.78 µg/mL (≈ 2.21 µM)
- Mean Survival Day (MSD) ([3]; Dose 10 mg/kg): 13.6 days

SMILES: CCCCOc1ccc(Cc2nnc(-c3cccnc3N)o2)cc1 [Example 45, 3-(5-(4-Butoxy-benzyl)-[1,3,4]oxadiazol-2-yl)-pyridin-2-ylamine]
- MIC [1]: 6.25 µg/mL (≈ 19.3 µM)
- MIC [2]: 12.5 µg/mL (≈ 38.5 µM)

SMILES: Nc1ncccc1-c1nnn(Cc2ccc(Oc3ccccc3)s2)n1 [Example 46, 3-(2-(5-Phenoxy-thiophen-2-ylmethyl)-2H-tetrazol-5-yl)-pyridin-2-ylamine]
- MIC [1]: 0.39 µg/mL (≈ 1.11 µM)
- MIC [2]: 1.56 µg/mL (≈ 4.45 µM)

SMILES: Nc1ncccc1-c1nnn(Cc2ccc(OCc3ccccc3)s2)n1 [Example 48, 3-(2-(5-Benzyloxy-thiophen-2-ylmethyl)-2H-tetrazol-5-yl)-pyridin-2-ylamine]
- MIC [1]: 0.39 µg/mL (≈ 1.07 µM)
- MIC [2]: 1.56 µg/mL (≈ 4.28 µM)

SMILES: Nc1ncccc1-c1nnn(Cc2ccccc2)n1 [Example 49, 3-(2-Benzyl-2H-tetrazol-5-yl)-pyridin-2-ylamine]
- MIC [1]: 1.56 µg/mL (≈ 6.18 µM)
- MIC [2]: 12.5 µg/mL (≈ 49.5 µM)

SMILES: CCOc1ccc(Cn2nnc(-c3cccnc3N)n2)cc1 [Example 50, 3-(2-(4-Ethoxy-benzyl)-2H-tetrazol-5-yl)-pyridin-2-ylamine]
- MIC [1]: 6.25 µg/mL (≈ 21.1 µM)
- MIC [2]: > 25 µg/mL

SMILES: Nc1ncccc1-c1nnn(Cc2ccc(Oc3ccc(F)cc3)o2)n1 [Example 51, 3-(2-(5-(4-Fluoro-phenoxy)-furan-2-ylmethyl)-2H-tetrazol-5-yl)-pyridin-2-ylamine]
- MIC [1]: 6.25 µg/mL (≈ 17.7 µM)
- MIC [2]: 3.13 µg/mL (≈ 8.88 µM)

SMILES: Cc1ccc(Cc2cccc(Cn3nnc(-c4cccnc4N)n3)c2)s1 [Example 52, 3-(2-(3-(5-Methyl-thiophen-2-ylmethyl)-benzyl)-2H-tetrazol-5-yl)-pyridin-2-ylamine]
- MIC [1]: 1.56 µg/mL (≈ 4.3 µM)
- MIC [2]: 3.13 µg/mL (≈ 8.64 µM)

SMILES: Cc1ccc(Cc2ccc(Cn3nnc(-c4cccnc4N)n3)cc2)o1 [Example 53, 3-(2-(4-(5-Methyl-furan-2-ylmethyl)-benzyl)-2H-tetrazol-5-yl)-pyridin-2-ylamine]
- MIC [1]: 0.39 µg/mL (≈ 1.13 µM)
- MIC [2]: 0.78 µg/mL (≈ 2.25 µM)
- Mean Survival Day (MSD) ([3]; Dose 2.5 mg/kg): 7.6 days
- Mean Survival Day (MSD) ([3]; Dose 10 mg/kg): 13.8 days

SMILES: Nc1ncccc1-c1nnn(Cc2ccn(Cc3ccccc3)c2)n1 [Example 55, 3-(2-(1-Benzyl-1H-pyrrol-3-ylmethyl)-2H-tetrazol-5-yl)-pyridin-2-ylamine]
- MIC [1]: 0.1 µg/mL (≈ 0.302 µM)
- MIC [2]: 0.78 µg/mL (≈ 2.35 µM)

Reference: US8183264B2, “Pyridine derivative substituted by heteroaryl ring, and antifungal agent comprising the same” (Eisai R&D Managment Co., Ltd., priority 2006, dated 2012)
